Laboratory results published in US11472766B2, “Lipid nanoparticle composition” (Suzhou Abogen Biosciences Co., Ltd., priority 2020, dated 2022).

Tests used:
[1] = Lipid nanoparticle size by dynamic light scattering (Malvern Zetasizer Nano ZS); format: physicochemical; conditions: LNP: cationic lipid/DSPC/cholesterol/PEG-lipid 50:10:38.5:1.5, hEPO mRNA
Procedure, shortened: (§1)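 Lipids 50:10:38.5:1.5 (cationic:DSPC:chol:PEG) in EtOH + mRNA in citrate pH 4, 1:3 vol, microfluidic, 9–30 mL/min; total lipid:mRNA ~10:1–30:1 w/w. Dialysis to DPBS, 0.2 μm filter. DLS 173° backscatter; Ribogreen encapsulation.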

[2] = Encapsulation efficiency of lipid nanoparticles (Quant-it Ribogreen RNA quantification assay); format: physicochemical; conditions: LNP encapsulating hEPO mRNA
Procedure, shortened: as §1

[3] = test system: human erythropoietin (hEPO) mRNA; experiment: Animal study: hEPO expression after tail vein injection of LNPs encapsulating hEPO mRNA (serum ELISA); format: in vivo; conditions: hEPO level, female ICR mice, 0.5 mg/kg, 6 hours post administration; for Expression at 6 h (μg/ml): class symbols, Table 3; for Expression at 6 h: Table 2
Procedure, shortened: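 Female ICR mice (6-8 weeks) received LNPs carrying hEPO mRNA by tail vein injection at 0.5 mg/kg, with MC3 LNPs dosed the same way as positive control. Blood was drawn at set times (e.g., 6 h) and serum separated. hEPO was quantified by ELISA and reported as μg/ml.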

[4] = Apparent pKa of LNP formulations (TNS fluorescence assay); conditions: LNP cationic lipid/DSPC/cholesterol/DMG-PEG 50/10/38.5/1.5 mol %
Experimental: The apparent pKa of each formulation was determined using an assay based on fluorescence of 2-(p-toluidino)-6-napthalene sulfonic acid (TNS). LNP formulations comprising of cationic lipid/DSPC/cholesterol/DMG-PEG (50/10/38.5/1.5 mol %) in PBS were prepared as described above. TNS was prepared as a 300 uM stock solution in distilled water. LNP formulations were diluted to 0.1 mg/ml total lipid in 3 mL of buffered solutions containing 50 mM sodium citrate, 50 mM sodium phosphate, 50 mM sodium borate, and 30 mM sodium chloride where the pH ranged from 3 to 9. An aliquot of the TNS solution was added to give a final concentration of 0.1 mg/ml and following vortex mixing fluorescence intensity was measured at room temperature in a Molecular Devices Spectramax iD3 spectrometer using excitation and mission wavelengths of 325 nm and 435 nm. A sigmoidal best fit analysis was applied to the fluorescence data and the pKa value was measured as the pH giving rise to half-maximal fluorescent intensity.

Row | SMILES | polydispersity ([1]; Table 3) | size nm ([1]; Table 3) | Encapsulation Efficiency ([2]; Table 3) | Apparant Pka ([4]; Table 3) | polydispersity ([1]; Table 2) | size nm ([1]; Table 2) | Encapsulation Efficiency ([2]; Table 2) | Apparant Pka ([4]; Table 2) | Expression at 6 h (μg/ml) [3] | Expression at 6 h [3]
1 | CCCCCCCCC(CCCCCCCC)COC(=O)CCCCCN(CCCCCC(=O)OCC(CCCCCCCC)CCCCCCCC)CCN(CCO)C1CCCOC1 (stereo not shown) [Compound 65] | 0.066 | 63.83 nm | 93.0% | 6.544 | – | – | – | – | A (≥2) | –
2 | CCCCCCCCC(CCCCCC)COC(=O)CCCCCC(CCCCCC(=O)OCC(CCCCCC)CCCCCCCC)CN(CC)CCO (stereo not shown) [Compound 16] | 0.225 | 54.69 nm | 98.87% | 4.403 | – | – | – | – | D (<0.1) | –
3 | CCCCCCCCC(O)CN(CCN(CCCCCC(=O)OCC(CCCCCC)CCCCCCCC)CCCCCC(=O)OCC(CCCCCC)CCCCCCCC)C1CCC1 (stereo not shown) [Compound 34] | 0.095 | 63.32 nm | 96.1% | 5.29 | – | – | – | – | D (<0.1) | –
4 | CCCCC/C=C\CCCC(=O)C(CC/C=C\CCCCC)C(CCC/C=C\CCCCC)OC(=O)CCCCCN(CCO)CCCCCC(=O)OCCC/C=C/CCCCC (stereo not shown) [Compound 100] | 0.208 | 58.6 nm | 87.7% | 6.187 | – | – | – | – | C (≥0.1 and <1) | –
5 | CCCCCCCCCCCOC(=O)CCCCCN(CCCCCC(=O)OCC(CCCCCCCC)CCCCCCCC)CCN(CCO)C1CCCCC1 [Compound 83] | 0.087 | 67.62 nm | 93.5% | 6.328 | – | – | – | – | B (≥1 and <2) | –
6 | CCCCC/C=C\CCCC(CCC/C=C\CCCCC)OC(=O)CCCCCN(CCCCCC(=O)OCCC/C=C/CCCCC)CCN(CCO)C1CCC1 [Compound 63] | 0.088 | 94.11 nm | 85.9% | 6.406 | – | – | – | – | B (≥1 and <2) | –
7 | CCCCCCCCC(CCCCCC)C(CC)OC(=O)CCCCCN(CCCCCC(=O)OC(CC)C(CCCCCC)CCCCCCCC)CCN(CCO)C1CCC1 (stereo not shown) [Compound 39] | 0.043 | 64.4 nm | 98.8% | 6.061 | – | – | – | – | C (≥0.1 and <1) | –
8 | CCCCC/C=C\CCCC(=O)C(CC/C=C\CCCCC)C(CCC/C=C\CCCCC)OC(=O)CCCCCN(CCCCCC(=O)OCCC/C=C/CCCCC)CCN(CCO)C1CCC1 (stereo not shown) [Compound 101] | 0.067 | 72 nm | 85.5% | 6.071 | – | – | – | – | B (≥1 and <2) | –
9 | CCCCC/C=C\CCCC(CCC/C=C\CCCCC)COC(=O)CCCCCN(CCCCCC(=O)OCC(CCC/C=C\CCCCC)CCC/C=C\CCCCC)CCN(CCO)C1CCC1 [Compound 66] | 0.064 | 63.86 nm | 80.0% | 6.036 | – | – | – | – | B (≥1 and <2) | –

More lines, main results first:

Row | polydispersity ([1]; Table 3) | size nm ([1]; Table 3) | Encapsulation Efficiency ([2]; Table 3) | Apparant Pka ([4]; Table 3) | polydispersity ([1]; Table 2) | size nm ([1]; Table 2) | Encapsulation Efficiency ([2]; Table 2) | Apparant Pka ([4]; Table 2) | SMILES | Expression at 6 h (μg/ml) [3] | Expression at 6 h [3]
10 | 0.106 | 62.06 nm | 92.1% | 6.257 | – | – | – | – | CCCCCCCCC(CCCCCC)COC(=O)CCCCCN(CCCCCC(=O)OCC(CCCCCC)CCCCCCCC)CCN(CCO)C1CCSCC1 (stereo not shown) [Compound 91] | B (≥1 and <2) | –
11 | – | – | – | – | 0.060 | 58.7 nm | 96.3% | 6.22 | CCCCCCCCC(CCCCCC)COC(=O)CCCCCN(CCCCCC(=O)OCC(CCCCCC)CCCCCCCC)CCN(CCO)C1CCCCCC1 (stereo not shown) [Compound 3] | – | 2.63 µg/mL
12 | 0.116 | 72.36 nm | 95.6% | 6.833 | – | – | – | – | CCCCCCCCC(CCCCCC)COC(=O)NCCCCN(CCCCNC(=O)OCC(CCCCCC)CCCCCCCC)CCN(CCO)C1CCCC1 (stereo not shown) [Compound 125] | A (≥2) | –
13 | 0.044 | 57.81 nm | 89.4% | 7.048 | – | – | – | – | CCCCCCCCC(CCCCCC)CNC(=O)NCCCCN(CCCCNC(=O)NCC(CCCCCC)CCCCCCCC)CCN(CCO)C1CCCCC1 (stereo not shown) [Compound 122] | A (≥2) | –
14 | – | – | – | – | 0.065 | 75.3 nm | 96.8% | 6.27 | CCCCCCCCC(CCCCCC)COC(=O)CCCCCN(CCCCCC(=O)OCC(CCCCCC)CCCCCCCC)CCN(CCO)C1CCCCC1 (stereo not shown) [Compound 2] | – | 6.16 µg/mL
15 | 0.081 | 71.2 nm | 98.3% | 6.884 | – | – | – | – | CCCCCCCCC(CCCCCC)COC(=O)CCCCCN(CCCCCC(=O)OCC(CCCCCC)CCCCCCCC)CCN(CCO)C1CC(O)C1 (stereo not shown) [Compound 22] | D (<0.1) | –
16 | 0.065 | 70.36 nm | 98.3% | 5.907 | – | – | – | – | CCCCCCCCC(CCCCCC)COC(=O)CCCCN(CCCCC(=O)OCC(CCCCCC)CCCCCCCC)CCN(CCO)C1CCC1 (stereo not shown) [Compound 36] | A (≥2) | –
17 | 0.07 | 72.85 nm | 86.3% | 6.810 | – | – | – | – | CCCCCCCCCCCOC(=O)CCCCCN(CCCCCC(=O)NCC(CCCCCCCC)CCCCCCCC)CCN(CCO)C1CCCCCC1 [Compound 149] | B (≥1 and <2) | –
18 | 0.032 | 74.3 nm | 96.7% | 6.334 | – | – | – | – | CCCCCCCCC(CCCCCC)CC(=O)COCCCCN(CCCCCOC(=O)CC(CCCCCC)CCCCCCCC)CCN(CCO)C1CCCC1 (stereo not shown) [Compound 25] | A (≥2) | –
19 | 0.082 | 69.58 nm | 91.4% | 7.304 | – | – | – | – | CCCCCCCCCCCOC(=O)CCCCCN(CCCCCC(=O)NCC(CCCCCCCC)CCCCCCCC)CCN(CCO)C1CCCC1 [Compound 147] | A (≥2) | –
20 | 0.083 | 109.90 nm | 90.6% | 6.668 | – | – | – | – | CCCCCCCCC(CCCCCC)CNC(=O)CCCCCN(CCCCCC(=O)OCC(CCCCCC)CCCCCCCC)CCN(CCC)C1CCC(O)CC1 (stereo not shown) [Compound 133] | A (≥2) | –
21 | 0.061 | 64.66 nm | 96.9% | 6.984 | – | – | – | – | CCCCCCCCC(CCCCCC)COC(=O)NCCCCN(CCCCNC(=O)OCC(CCCCCC)CCCCCCCC)CCN(CCO)C1CCCCC1 (stereo not shown) [Compound 124] | A (≥2) | –
22 | 0.013 | 63.52 nm | 94.50% | 6.688 | – | – | – | – | CCCCCCCCC(CCCCCCCC)CNC(=O)CCCCCN(CCCCCC(=O)OCC(CCCCCCCC)CCCCCCCC)CCN(CCO)C1CCCCC1 [Compound 138] | A (≥2) | –
23 | 0.157 | 76.79 nm | 95.2% | 6.72 | – | – | – | – | CCCCCCCCC(CCCCCC)CC(=O)NCCCCCN(CCCCCOC(=O)CC(CCCCCC)CCCCCCCC)CCN(CCO)C1CC1 (stereo not shown) [Compound 117] | A (≥2) | –
